Read-outs that look alike come from different tables or passages of the source.
Assays:
[1] = target: T1, Transketolase from cell extract (Homo sapiens, UniProt P29401); experiment: Transketolase activity in cell extract (enzyme-linked NADH oxidation, spectrophotometric/fluorimetric); assay type: biochemical; conditions: for inhibitory activity class (Figure 2): Figure 2 grouping
T1 construct: approximately 300 µg of protein cell extract used for the determination of transketolase enzyme activity; endogenous in cells; host or cells: Cultured cells
T1 sequence (P29401 1-623): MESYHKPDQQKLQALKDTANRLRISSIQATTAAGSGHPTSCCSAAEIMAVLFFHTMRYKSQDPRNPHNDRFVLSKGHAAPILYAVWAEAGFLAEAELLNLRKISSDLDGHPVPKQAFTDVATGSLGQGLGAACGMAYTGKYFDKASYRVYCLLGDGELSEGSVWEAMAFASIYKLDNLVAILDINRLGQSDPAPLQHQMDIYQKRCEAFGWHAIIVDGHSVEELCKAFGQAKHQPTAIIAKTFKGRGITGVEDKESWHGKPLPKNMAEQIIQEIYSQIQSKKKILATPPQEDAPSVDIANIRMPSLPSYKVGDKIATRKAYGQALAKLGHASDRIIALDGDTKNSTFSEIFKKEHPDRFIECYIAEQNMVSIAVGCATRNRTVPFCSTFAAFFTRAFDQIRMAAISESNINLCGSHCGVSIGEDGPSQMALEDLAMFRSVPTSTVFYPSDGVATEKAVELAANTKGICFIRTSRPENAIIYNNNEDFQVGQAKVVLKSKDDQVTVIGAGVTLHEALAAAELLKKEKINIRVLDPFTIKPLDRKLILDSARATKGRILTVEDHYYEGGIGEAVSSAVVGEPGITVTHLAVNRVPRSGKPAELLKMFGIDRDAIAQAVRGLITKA
Protocol: Cell cultures were washed with PBS, detached from the flasks using 0.025% trypsin-EDTA and then resuspended in lysis buffer (1 mM dithiothreitol, 1 mM EDTA, 0.02% Triton X-100, 0.02% sodium deoxycholate, 0.2 mM phenylmethylsulfonyl fluoride, 1% sodium azide and 20 mM Tris-HCl, pH 7.5). Cells were homogenized using a laboratory sonicator (1/2 Liter Branson 200 Ultrasonic bath, 5 min, 40 kHz, 4°C) and immediately ultracentrifuged at 105000×g for 1 hour at 4°C. The supernatant was separated and approximately 300 µg of protein cell extract used for the determination of transketolase enzyme activity using a Cobas Mira Plus chemistry analyzer (HORIBA ABX, Montpellier, France) or a spectrofluorimeter Kontron SFM-25 (Bio-Tek Instruments, VT, United States).
Transketolase (EC 2.2.1.1) activity was determined using the enzyme linked method described by Smeets and colleagues. Briefly, cell extract and inhibitors were added to a cuvette containing 5 mM MgCl2, 0.2 U×mL^−1 glycerophsphate dehydrogenase-triosephosphate isomerase (from rabbit muscle), 0.2 mM NADH, 0.1 mM thiamine pyrophosphate (TPP) and 50 mM Tris-HCl, pH 7.6 at 37°C. The reaction was initiated by the addition of 300 µL substrate mixture (see below) per mL of cuvette volume. The oxidation of NADH, which is directly proportional to transketolase activity, was followed by the decrease in absorbance at 340 nm (spectrophotometric method) or in fluorescence at 450 nm when excited at 330 nm (fluorimetric method) before and after the addition of the different compounds tested. A blank with all the assay components but the sample was performed in each experiment by measuring the oxidation of NADH. The substrate mixture was prepared by dissolving 50 mM ribose-5-phosphate in 50 mM Tris-HCl, pH 7.6, and adding 0.05 IU ribulose-5-phosphate-3-epimerase (from baker's yeast) and 0.25 IU phosphoriboisomerase (from spinach). The substrate mixture was continuously stirred and heated for 1 hour at 37°C and then kept at −20°C until use.
Protein concentration of cell extracts was determined using the BCA Protein Assay (Pierce Biotechnology, Rockford, IL) to calculate the specific activity of the transketolase enzyme.

HT29 cells = experiment: MTT cell viability assay, HT29; assay type: cell-based, human
Protocol: (§1) HCT116 human colon carcinoma cells (gift from Dr Capellà, Institut Català d'Oncologia, Barcelona, Spain) were grown in DMEM∶HAM F12 (1∶1), supplemented with 10% heat-inactivated foetal calf serum (FCS) (PAA Laboratories, Pasching, Austria), L-glutamine (2 mM), pyruvic acid (1 mM), non-essential aminoacids (1%) and antibiotics: 100 U×mL^−1 penicillin and 100 µg×mL^−1 streptomycin. HT29 human colon adenocarcinoma cells (obtained from the American Type Culture Collection -ATCC-) were grown in Dulbecco's Modified Eagle's Medium, 25 mM D-glucose, 4 mM L-glutamine supplemented with 10% heat-inactivated FCS, and antibiotics: 100 U×mL^−1 penicillin and 100 µg×mL^−1 streptomycin (Invitrogen, Paisley, UK). All cell cultures were carried out at 37°C in a humidified atmosphere with 5% CO2. Subconfluent monolayers of cells were used in all experiments.
(§2) Cell viability was determined using the MTT assay, which is based on the ability of live cells to cleave the tetrazolium ring, thus producing formazan, which absorbs at 570 nm. 5000 cells/well HT29 cells or 1700 cells/well HCT116 cells were seeded into 96-well plates and incubated for 24 h prior to the addition of the different compounds at different concentrations, in triplicate. After incubation for 72 h, the supernatant was aspirated and 100 µL of filtered MTT (0.5 mg/mL) was added to each well. Following 1 h of incubation, the supernatant was removed and the formazan precipitated was dissolved in DMSO. Relative cell viability was measured by absorbance at 550 nm on an ELISA plate reader (Tecan Sunrise MR20-301, TECAN, Austria). Concentrations that inhibited cell growth by 50% (IC50) after treatment were determined.

HCT116 cells = experiment: MTT cell viability assay, HCT116; assay type: cell-based, human
Protocol: as §1, §2

[2] = Homo sapiens, HT-29, 72 h incubation, read-out: IC50 Cell viability (HT29 cells)
[3] = Homo sapiens, HCT-116, 72 h incubation, read-out: IC50 Cell viability (HCT116 cells)

Structure (SMILES)	IC50 [1]	inhibitory activity class (Figure 2) [1]	IC50 (HT29 cells; [2])	IC50 (HCT116 cells; [3])	IC50 (HT29 cells; 72 h incubation, read-out: IC50 cell viability (HT29))	IC50 (HCT116 cells; 72 h incubation, read-out: IC50 cell viability (HCT116))	IC50 ([1]; cell extract, compound concentration varied 50 to 300 µM, read-out: IC50 Transketolase from cell extract)	transketolase inhibition in the enzymatic assay (in words) ([1]; cell extract)
Cc1c(Cl)cccc1NC(=O)Nc1cc([N+](=O)[O-])ccc1O [T2]	200 µM	Actives	10 µM	9 µM	–	–	–	–
Cc1ncc(C[n+]2csc(CCO)c2C)c(=O)[nH]1 [oxythiamine, reference compound]	–	–	–	–	8000 µM	8000 µM	–	–
O=C(Nc1ccccc1)Nc1cc(Cl)c([N+](=O)[O-])cc1O [T2B]	–	Actives	6 µM	12 µM	–	–	100 µM	–
Cc1ccc([N+](=O)[O-])cc1NC(=O)Nc1cccc2c(O)cccc12 [T2A]	150 µM	Actives	15 µM	17 µM	–	–	–	–
CCc1ccc(NC(=O)Nc2cccc([N+](=O)[O-])c2)c(CC)c1 [T2D]	> 200 µM	Inactives	> 200 µM	> 200 µM	–	–	–	no inhibition of transketolase
Cc1c(Cl)cccc1NC(=O)Nc1ccc(CC(=O)O)cc1 [T2C]	> 200 µM	Inactives	200 µM	200 µM	–	–	–	inactive
O=[N+]([O-])c1cccc(NC(=S)Nc2cc(Cl)ccc2O)c1 [T2E]	> 200 µM	Inactives	20 µM	13 µM	–	–	–	poorly active
Cc1c(Cl)cccc1NC(=O)Nc1cccc(O)c1 [T2F]	> 200 µM	Inactives	–	–	–	–	–	no activity
